Values joined by “and” are separate entries in the source; they are usually repeats but may differ in a detail not shown here. Equal entries are not always repeated. “Also recorded” adds a separate entry of the source.
Legend:
[1] = Microsomal incubations of 3MI: production of 3MI metabolites by pig liver microsomes (HPLC); assay type: in vitro ADME; settings: for Maximum rate of production: highest of 30 pig liver microsome samples; for Minimum rate of production: lowest of 30 pig liver microsome samples; for Rate of Production (pmol/mg prot./min) ±SD: metabolite formed from 0.4 mM 3MI, mean ±SD, n = 30
Description: Preparation of microsomes.
Microsomal incubations. […] C. (production of metabolites was determined to be linear over a range of 10 to 40 min). Incubation volumes were 0.5 ml. Reactions were started by the addition of NADPH after 3-minute preincubation periods at 37° C., and stopped with 0.5 ml of ice-cold acetonitrile. Incubations of all 30 samples were run in duplicate and for control incubations NADPH was omitted. […] A 50 μl aliquot of the clear supernatant was analyzed by high-performance liquid chromatography (HPLC).
Analytical chromatography. […] Absorbance was monitored at 250 nm; fluorescence was monitored at excitation and emission wavelengths of 286 and 350 nm, respectively. HPLC analysis for 3MI metabolites was conducted immediately after the incubations. Metabolites were identified by comparison of retention times, and co-injection of standards (spiking the metabolite mixture with authentic standards).

[2] = rat liver microsomes incubated with 3-MI; cited from earlier work
aldehyde oxidase [3] = test: Hepatic aldehyde oxidase activity measured as formation of HMOI from HMI by cytosol; assay type: in vitro ADME, pig
Source text: Preparation of porcine liver cytosol.
Chromatographic analysis. […] Absorbance was monitored at 250 nm.

[4] = Measurement of 3MI fat content in backfat (colorimetric assay); assay type: in vivo, pig
Source text: Measurement of 3MI fat content. For the quantitation of the 3MI fat content, a sample of backfat was taken from each pig and its 3MI content measured with a colorimetric assay (Mortensen and Sorensen, 1984). All analysis were done in duplicate.

[5] = Skatole level in backfat of CYP2A6 deletion mutant and wild type pigs (colorimetric assay); assay type: in vivo, pig; settings: sample with CYP2A6 deletion mutation
Description: A backfat sample was collected at the midline point of 11th rib and frozen at −20° C. until assayed for skatole. The skatole content was measured with a colorimetric assay, according to the method described by Gonzalo et al. (2000).

[6] = Stability of isolated UV-1 in acetonitrile:water solution at room temperature (HPLC at 7-day intervals); assay type: physicochemical
Description: UV Spectroscopy. The UV spectrum of the metabolites identified on the basis of their retention times on HPLC (HMOI, 3MOI, I3C, and 2-aminoacetophenone) were identical to those of authentic standards. Spectra of metabolites were recorded using water as solvent, and the wavelengths of maximal absorption were as follows: HMOI: λmax (nm): 208, 253; 3MOI: λmax (nm): 205, 252; I3C: λmax (nm): 221, 278; 2-aminoacetophenone: λmax (nm): 228, 257. The UV spectrum of 3-methylindole was: λmax (nm): 224, 281. The UV spectrum of UV-1 metabolite was: λmax (nm): 204, 238. […] Isolated UV-1 was kept in acetonitrile:water solution at room temperature and the solution was analyzed by HPLC at 7-day intervals for 6 weeks. After 6 weeks only about 25% of the original compound remained and it was observed that UV-1 was converted into 3MOI.

aldehyde oxidase [7] = settings: up to 1.0 mM in the assay mixture
aldehyde oxidase [8] = test: in vitro; settings: male, pig, porcine liver cytosol, pH 7.4, probe HMI (conversion to HMOI)

| Structure (SMILES) | Maximum rate of production [1] [pmol/mg prot./min] | Minimum rate of production [1] [pmol/mg prot./min] | Rate of Production (pmol/mg prot./min) ±SD ([1]; pig liver microsomes) | Percentage of all 3MI metabolites produced (average) ([1]; pig liver microsomes) [%] | also measured |
| --- | --- | --- | --- | --- | --- |
| NCC(=O)c1ccccc1 [2-aminoacetophenone] | 12.7 | 3.4 | 7.8 ± 2.4 pmol/mg prot./min | 0.5 | Percentage of the metabolites formed [2]: 12% |
| O=CNCC(=O)c1ccccc1 [2-formamidoacetophenone] |  |  |  |  | Percentage of the metabolites formed [2]: 33% |
| CC1(O)C(=O)Nc2ccccc21 (centres unmarked) [3-hydroxy-3-methyloxindole] | 516.5 | 118.9 | 272.4 ± 91.6 pmol/mg prot./min | 18.5 | Mean aldehyde oxidase activity (nmol HMOI/mg prot./min) (aldehyde oxidase [3]; High accumulator pigs, n 7): 0.80 nmol HMOI/mg prot./min; Mean aldehyde oxidase activity (nmol HMOI/mg prot./min) (aldehyde oxidase [3]; Low accumulator pigs, n 8): 2.73 nmol HMOI/mg prot./min; Mean aldehyde oxidase activity (nmol HMOI/mg prot./min) (aldehyde oxidase [3]; Moderate accumulator pigs, n 15): 1.40 nmol HMOI/mg prot./min; AO activity, mean (aldehyde oxidase [3]; all samples, 30 pigs): 1.27 nmol HMOI/mg protein/min; AO activity, range (aldehyde oxidase [3]; all samples, 30 pigs): 0.25 to 3.53 nmol HMOI/mg protein/min |
| Cc1c[nH]c2ccccc12 [3-methylindole] |  |  |  |  | Mean 3-methylindole content (mg/kg) in fat ([4]; High accumulator pigs (0.2 mg/kg or more), n 7): 0.24 mg/kg; Mean 3-methylindole content (mg/kg) in fat ([4]; Low accumulator pigs (0.1 mg/kg or less), n 8): 0.09 mg/kg; Mean 3-methylindole content (mg/kg) in fat ([4]; Moderate accumulator pigs (0.11–0.19 mg/kg), n 15): 0.15 mg/kg; 3MI fat content, mean ([4]; all samples, 30 pigs): 0.15 mg/kg; 3MI fat content, range ([4]; all samples, 30 pigs): 0.07 to 0.3 mg/kg; Skatole level in fat versus wild type samples [5]: much higher |
| CC1(O)C=Nc2ccccc21 (centres unmarked) [UV-1, 3-hydroxy-3-methylindolenine] | 1556.3 | 180.5 | 750.7 pmol/mg prot./min and 750.7 ± 414.5 pmol/mg prot./min | 45.1 | Stability (in words) [6]: unstable compound; Original compound remaining ([6]; acetonitrile:water solution, room temperature, after 6 weeks, converted into 3MOI): about 25% |
| Oc1ncnc2[nH]ncc12 [allopurinol] |  |  |  |  | Effect on the conversion of HMI to HMOI (aldehyde oxidase [7]): did not affect; also recorded: lack of inhibition |
| CCN(CC)CCCC(C)Nc1c2ccc(Cl)cc2nc2ccc(OC)cc12 (centres unmarked) [quinacrine] |  |  |  |  | activity at 10 min, 50 µM (aldehyde oxidase [8]): 75.5%; activity at 10 min, 1 mM (aldehyde oxidase [8]): 43.4% |

Second part, led by results:

| Maximum rate of production [1] [pmol/mg prot./min] | Minimum rate of production [1] [pmol/mg prot./min] | Rate of Production (pmol/mg prot./min) ±SD ([1]; pig liver microsomes) | Percentage of all 3MI metabolites produced (average) ([1]; pig liver microsomes) [%] | Structure (SMILES) | also measured |
| --- | --- | --- | --- | --- | --- |
| 700.8 | 234.4 | 420.9 ± 118.1 pmol/mg prot./min | 27.9 | CC1C(=O)Nc2ccccc21 (centres unmarked) [3-methyloxindole] | Percentage of the metabolites formed [2]: 5% |
| 27.3 | 0.7 | 5.1 ± 5.8 pmol/mg prot./min | 0.3 | Cc1c[nH]c2ccc(O)cc12 [5-OH-3-methylindole] | Rate of Production (pmol/mg prot./min) ±SD ([1]; pig liver microsomes, listed as 5-OH-3MI): 5.1 pmol/mg prot./min |
| 213.7 |  | 58.4 ± 47.2 pmol/mg prot./min | 4.9 | Cc1c[nH]c2cc(O)ccc12 [6-OH-3-methylindole, 6-OH-3-methylindole] | Average rate of production relative to the 5 isomer ([1]; 6-OH-3MI versus 5-OH-3MI, pig liver microsomes): approximately eleven times greater |
| 85.7 | 12.1 | 37.1 ± 15.8 pmol/mg prot./min |  | OCc1c[nH]c2ccccc12 [Indole-3-carbinol, indole-3-carbinol] |  |

Reference: patent US7202035B2, “Genetic markers for skatole metabolism” (University of Guelph, priority 1999, dated 2007)
